Laboratory results taken from article PMC5624897, “Identification of isoliquiritigenin as an activator that stimulates the enzymatic production of glycyrrhetinic acid monoglucuronide” (Scientific Reports, 2017).

Test system: T1, β-glucuronidase from P. purpurogenum Li-3 (PGUS)
T1 construct: native enzyme from mycelia of the fungus grown on GL; crude extract for kinetics, or ammonium sulfate and DEAE-cellulose
Experiment: HPLC of GAMG formed; double reciprocal plot
Assay type: biochemical, Talaromyces purpureogenus
Conditions: control without ISL; crude β-glucuronidase solution, 2 h, 40 °C, sodium acetate buffer pH 5.0
Source text: HPLC of GAMG formed; double reciprocal plot on β-glucuronidase from P. purpurogenum Li-3 (PGUS)

## CC1(C)[C@@H](O[C@H]2O[C@H](C(=O)O)[C@@H](O)[C@H](O)[C@H]2O[C@@H]2O[C@H](C(=O)O)[C@@H](O)[C@H](O)[C@H]2O)CC[C@]2(C)[C@H]3C(=O)C=C4[C@@H]5C[C@@](C)(C(=O)O)CC[C@]5(C)CC[C@@]4(C)[C@]3(C)CC[C@@H]12 [GL, glycyrrhizin]
  K m: 0.41 mM
